Assay results as given in patent US10954271B2, “Anti-microbial peptides” (priority 2014, dated 2021).
Values after ≈ are worked out from the molar mass of the structure shown. Positions of bridges follow the written chain, without caps; N, C: chain ends. Non-standard residues stand in square brackets, D forms with d. Residues, ends and D or L forms follow the SMILES beside them. d2Nal = N[C@H](Cc1ccc2ccccc2c1)C(=O)O; Nle = CCCC[C@H](N)C(=O)O

What was measured:
M. smegmatis = M. smegmatis adhesion / anti-biofilm assay, counting crystal violet-positive cells; format: cell-based
Source text: A second series of cationic-aromatic AMPs was designed, and linked (via the N-terminus) to linear anti-biofilm peptides. This created a hybrid anti-biofilm/AMP (AB01), with a Gram-positive specific C-terminal di-peptide (dVal-dPro). A model Gram positive organism that rapidly forms biofilms (M. smegmatis; Ojha, A. and G. F. Hatfull, The role of iron in Mycobacterium smegmatis biofilm formation: the exochelin siderophore is essential in limiting iron conditions for biofilm formation but not for planktonic growth. Mol Microbiol, 2007. 66(2): p. 468-83) was used to assess the inhibition of adhesion/anti-biofilm activity of AB01 & two control AMPs, using a 2 day old biofilm.
The effect of three AMPs on M. smegmatis adhesion was measured on day 0 (data not shown) & after 2 days of biofilm growth, counting crystal violet-positive cells (FIG. 5; see O'Toole, G. A., Microtiter dish biofilm formation assay. J Vis Exp, 2011(47)). Control bacterial adhesion was designated as 100%, and the effect of an added AMP on the cell count was quantified as a percent of the control. The AMPs included Model 01, an AMP of the (RW)n series, (RW)4: [17]; AM11, a cyclized analog of the (RW)n series c(RW)3; and AB01, a hybrid of a cyclized AMP and a linear anti-biofilm peptide.

E. coli [1] = test system: E. coli
B. subtilis = test: Anti-microbial activity, concentration needed to inhibit 50% of bacterial division (IC50); format: cell-based
Method: (§1) Further, a set of the anti-microbial peptides described herein were tested for their anti-microbial activity on both Gram-positive and Gram-negative bacteria. […] Unexpectedly, it was further observed that the C-terminal residues (denoted by bold font) selectively target gram-negative or gram-positive bacteria, as indicated.
(§2) Anti-microbial activity is reported as the concentration needed to inhibit 50% of bacterial division (ICso, a standard used in the AMP field). […] In contrast, Opt 3-5 have a Phe for Pro substitution in the C-terminal di-peptide, which produces relatively specificity for Gram-negative organisms (e.g. E. coli). Melittin is a cationic-hydrophobic AMP that served as anti-microbial positive control. Agglutination, an attribute assisting in the clearance of bacterial cells during infection, was assessed via microscopy, and was present with all five AMPs.

E. coli [2] = test: as above; format: cell-based; settings: for relative specificity Gram-positive versus Gram-negative: from IC50 against E. coli and B. subtilis, Table 1
Method: as §1, §2

[3] = test system: Gram-positive and Gram-negative bacteria; test: Membrane disruption and cell agglutination assessed via microscopy; format: cell-based
Method: as §1, §2
(§3) (1) Microscopy. Bacteria can be treated with dilutions of AMPs were directly analyzed via microscopy for membrane disruption phenotypes, including cell agglutination, cell lysis, and cell elongation/septum disruption. Cells can be also monitored for septum inhibition and elongation through use of the membrane dye FM5-95 and DAPI. Additionally the cells can be imaged and stained with the Life Technologies LIVE/DEAD® BacLight™ Bacterial Viability Kit For killing kinetics of the anti-microbial peptides.
(2) Agglutination and Protein Aggregation. Using the antimicrobial 96 well assay described above, imaging of the 96 well plate and can provide a method for the determination of the MAC (minimum agglutination concentration) for the bacteria, as described. Torrent et al., PLoS Pathogens 8(11): e1003005 (2012).

[4] = test system: Gram-positive and Gram-negative bacteria; test: Non-membrane activity (mode of action: septum inhibition, protein aggregation, cell division); format: cell-based
Method: as §1
Core sequences were cyclized to enhance druggability and anti-microbial activity. Multiple cationic residues increased binding to anionic membrane and intracellular structures. […] The C-terminal di-peptides in these AMPs were used for their ability to enhance oral activity in peptides. It was discovered that they also directed relative anti-microbial activity towards either Gram-positive or negative organisms (Table 1 and FIG. 5). These AMPs appear to have multiple mechanisms of action (Table 1), potentially mediated by specific binding to the bacterial membrane, and their intracellular accumulation (data not shown). In essence, these AMPs are a form of combination therapy.
as §3

[5] = orally administered, canines (beagles)
Source text: We further conducted a preliminary study in a large animal canine model to assess cardiovascular and hematologic safety and clearance of the peptide TCAM207 (SEQ NO: 209) from plasma over a multiple day dosing. Male and female purpose bred beagles were randomized to treatment and instrumented with Holter 9 lead electrocardiograph (ECG) jackets and non-invasive oscillographic paw blood pressure monitoring (emkaPAC 4G telemetry). ECG and BP signals were sampled at 500 Hz using GLP compliant software (IOX, EMKA). ECG signals were saved continuously and blood pressure determined hourly. Blood samples were taken before and after 14 days of SC or oral drug administration for complete chemistry panel and CBC analysis. Samples were taken 1, 2, 4, 8, 12, and 24 hours after drug administration on days 1 and 5 for assay of plasma IIP to assess PK profile. After a 1-2 week washout, dogs were randomized to the other arm of the study.

[6] = normal beagles (n=4), 5 days of 5× therapeutic dose

Molecule: CC[C@H](C)[C@H](NC(=O)[C@H](CCCNC(=N)N)NC(=O)[C@H](Cc1ccccc1)NC(C)=O)C(=O)N[C@@H](CCCNC(=N)N)C(=O)N[C@H](C(=O)N[C@@H](CCCNC(=N)N)C(=O)N[C@H](C(=O)N[C@H]1CC(=O)NCCCC[C@@H](C(=O)N[C@@H](C(=O)N2CCC[C@@H]2C(N)=O)C(C)C)NC(=O)[C@H](CCCNC(=N)N)NC(=O)[C@H](Cc2c[nH]c3ccccc23)NC(=O)[C@H](Cc2ccccc2)NC(=O)[C@@H](Cc2ccc3ccccc3c2)NC(=O)[C@H](CCCNC(=N)N)NC(=O)[C@H](CCCNC(=N)N)NC1=O)C(C)C)C(C)C [AB01, Ac-FRIRVRV-c[Asp-RR-dNal(21-FWR-Lys]-dVal-dPro-CONH2] (Ac-FRIRVRVDRR[d2Nal]FWRK[dV][dP]-NH2; lactam 8-15)
- concentration that prevented adhesion in a 2 day old biofilm (M. smegmatis; 2 day old biofilm): 3 to 5 µM
- potency in inhibition of adhesion/anti-biofilm activity relative to Model 01 (M. smegmatis; 2 day old biofilm): ~100 fold
- concentration that prevented adhesion on day 0 (M. smegmatis): 1 µM
- MIC for E. coli (E. coli [1]): 25 µM

Molecule: CC[C@H](C)[C@H](NC(=O)CN)C(=O)NCC(=O)N[C@@H](C)C(=O)N[C@H](C(=O)N[C@@H](CC(C)C)C(=O)N[C@@H](CCCCN)C(=O)N[C@H](C(=O)N[C@@H](CC(C)C)C(=O)N[C@H](C(=O)N[C@H](C(=O)NCC(=O)N[C@@H](CC(C)C)C(=O)N1CCC[C@H]1C(=O)N[C@@H](C)C(=O)N[C@@H](CC(C)C)C(=O)N[C@H](C(=O)N[C@@H](CO)C(=O)N[C@@H](Cc1c[nH]c2ccccc12)C(=O)N[C@H](C(=O)N[C@@H](CCCCN)C(=O)N[C@@H](CCCNC(=N)N)C(=O)N[C@@H](CCCCN)C(=O)N[C@@H](CCCNC(=N)N)C(=O)N[C@@H](CCC(N)=O)C(=O)N[C@@H](CCC(N)=O)C(N)=O)[C@@H](C)CC)[C@@H](C)CC)[C@@H](C)O)[C@@H](C)O)C(C)C)C(C)C [Melittin, reference compound]
- IC50 B. subtilis (B. subtilis): 20.8 µg/mL (≈ 7.31 µM)
- IC50, E. coli; μg/mL (E. coli [2]; concentration needed to inhibit 50% of bacterial division): 0.7 µg/mL (≈ 0.246 µM)
- Membrane Disruption? [3]: Yes
- Non-Membrane Activity? [4]: None observed

Molecule: CCCC[C@H](NC(C)=O)C(=O)N[C@H]1CC(=O)NCCCC[C@@H](C(=O)N[C@@H](C(=O)N2CCC[C@@H]2C(N)=O)C(C)C)NC(=O)[C@@H](Cc2ccc3ccccc3c2)NC(=O)[C@H](CCCNC(=N)N)NC(=O)[C@@H](Cc2ccc3ccccc3c2)NC(=O)[C@@H]2CCCN2C(=O)[C@H](CCCNC(=N)N)NC1=O [Opt 1] (Ac-[Nle]DRP[d2Nal]R[d2Nal]K[dV][dP]-NH2; lactam 2-8)
- relative specificity Gram-positive versus Gram-negative (E. coli [2]): relatively specific for B. subtilis
- Membrane Disruption? [3]: Yes, and Agglutination

Molecule: CCCC[C@H](NC(C)=O)C(=O)N[C@H]1CC(=O)NCCCC[C@@H](C(=O)N[C@@H](C(=O)N2CCC[C@@H]2C(N)=O)C(C)C)NC(=O)[C@H](CCCNC(=N)N)NC(=O)[C@@H](Cc2ccc3ccccc3c2)NC(=O)[C@H](CCCNC(=N)N)NC(=O)[C@@H](Cc2ccc3ccccc3c2)NC(=O)[C@@H]2CCCN2C(=O)[C@H](CCCNC(=N)N)NC1=O [Opt 2] (Ac-[Nle]DRP[d2Nal]R[d2Nal]RK[dV][dP]-NH2; lactam 2-9)
- relative specificity Gram-positive versus Gram-negative (E. coli [2]): relatively specific for B. subtilis
- Membrane Disruption? [3]: Yes, and Agglutination

Molecule: CCCC[C@H](NC(C)=O)C(=O)N[C@H]1CC(=O)NCCCC[C@@H](C(=O)N[C@H](Cc2ccccc2)C(=O)N[C@@H](C(N)=O)C(C)C)NC(=O)[C@H](Cc2c[nH]c3ccccc23)NC(=O)[C@H](CCCNC(=N)N)NC(=O)[C@@H](Cc2ccc3ccccc3c2)NC(=O)[C@@H]2CCCN2C(=O)[C@H](CCCNC(=N)N)NC1=O [Opt 3] (Ac-[Nle]DRP[d2Nal]RWK[dF][dV]-NH2; lactam 2-8)
- Membrane Disruption? [3]: Yes, and Agglutination
- Non-Membrane Activity? [4]: None observed

Molecule: CCCC[C@H](NC(C)=O)C(=O)N[C@H]1CC(=O)NCCCC[C@@H](C(=O)N[C@@H](Cc2ccccc2)C(=O)N[C@H](C(N)=O)C(C)C)NC(=O)[C@H](Cc2c[nH]c3ccccc23)NC(=O)[C@H](CCCNC(=N)N)NC(=O)[C@@H](Cc2ccc3ccccc3c2)NC(=O)[C@@H]2CCCN2C(=O)[C@H](CCCNC(=N)N)NC1=O [Opt 4] (Ac-[Nle]DRP[d2Nal]RWKFV-NH2; lactam 2-8)
- Membrane Disruption? [3]: Yes, and Agglutination

Molecule: CCCC[C@H](NC(C)=O)C(=O)N[C@H]1CC(=O)NCCCC[C@@H](C(=O)N[C@H](C(=O)N[C@@H](Cc2ccccc2)C(N)=O)C(C)C)NC(=O)[C@H](Cc2c[nH]c3ccccc23)NC(=O)[C@H](CCCNC(=N)N)NC(=O)[C@@H](Cc2ccc3ccccc3c2)NC(=O)[C@@H]2CCCN2C(=O)[C@H](CCCNC(=N)N)NC1=O [Opt 5] (Ac-[Nle]DRP[d2Nal]RWKVF-NH2; lactam 2-8)
- Membrane Disruption? [3]: Yes, and Agglutination
- Non-Membrane Activity? [4]: Altered cell

Molecule: (RW)4 [Model-01, reference compound]
- concentration that prevented adhesion in a 2 day old biofilm (M. smegmatis; 2 day old biofilm): ≥ 100 µM
- concentration that prevented adhesion on day 0 (M. smegmatis): 10 µM

Molecule: Ac-[Nle]DP[d2Nal]RWK[dV][dP]-NH2 (lactam 2-7) [TCAM207]
- time the peptide was stable and remained in the plasma [5]: up to 24 hrs
- RBC casts [6]: no RBC casts were noted
- change in red blood cell (RBC) count, hemoglobin (Hg), and hematocrit (Hct) [6]: slight (statistically insignificant) decreases in all parameters
